{
  "source": "patent US12060347B2",
  "about": "(BRISTOL-MYERS SQUIBB COMPANY, priority 2016, dated 2024)",
  "data": [
    {"target": "T1, human PAR4 (Homo sapiens, UniProt Q96RI0)", "T1 construct": "expressed in transfected cells; host or cells: HEK293 PAR4 Clone 1.2A (BMS Arctic ID 383940)", "T1 sequence (Q96RI0 18-385)": "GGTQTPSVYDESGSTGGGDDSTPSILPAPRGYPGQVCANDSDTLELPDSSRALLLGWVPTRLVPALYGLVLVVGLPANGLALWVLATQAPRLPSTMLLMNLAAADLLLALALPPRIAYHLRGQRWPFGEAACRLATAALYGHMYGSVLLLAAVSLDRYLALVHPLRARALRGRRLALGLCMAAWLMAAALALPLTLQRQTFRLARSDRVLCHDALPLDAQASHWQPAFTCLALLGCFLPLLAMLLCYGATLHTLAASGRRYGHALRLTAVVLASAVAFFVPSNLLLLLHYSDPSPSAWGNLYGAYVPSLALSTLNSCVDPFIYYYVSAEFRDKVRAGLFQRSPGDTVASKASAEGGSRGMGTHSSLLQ", "assay": "PAR4 FLIPR assay: antagonism of agonist-peptide-induced calcium mobilization in PAR4-expressing HEK293 cells", "format": "cell-based", "conditions": "H-Ala-Phe(4-F)-[…]NH2-induced intracellular calcium mobilization, 11-point curves", "units": {"IC50": "nM"}, "values": [
      {"smiles": "Cc1cc(-c2nc3cc(F)c(O[C@@H](C)[C@@H](C)OC(=O)Nc4cnc(C)nc4)cc3s2)c2ncc(OC(F)F)nc2c1", "note": "[Example 490, (2R,3S)-3-((2-(2-(difluoromethoxy)-7-methylquinoxalin-5-yl)-5-fluorobenzo[d]thiazol-6-yl)oxy)butan-2-yl (2-methylpyrimidin-5-yl)carbamate]", "IC50": 5.1},
      {"smiles": "CCCOc1cnc2c(-c3nc4cc(F)c(O[C@@H](C)[C@@H](C)OC(=O)Nc5cnc(C)nc5)cc4s3)cc(C)cc2n1", "note": "[Example 491, (2R,3S)-3-((5-fluoro-2-(7-methyl-2-propoxyquinoxalin-5-yl)benzo[d]thiazol-6-yl)oxy)butan-2-yl (2-methylpyrimidin-5-yl)carbamate]", "IC50": 0.4},
      {"smiles": "Cc1cc(-c2nc3cc(F)c(O[C@@H](C)[C@@H](C)OC(=O)Nc4cnc(C)nc4)cc3s2)c2ncc(OC(C)C)nc2c1", "note": "[Example 492, (2R,3S)-3-((5-fluoro-2-(2-isopropoxy-7-methylquinoxalin-5-yl)benzo[d]thiazol-6-yl)oxy) butan-2-yl (2-methylpyrimidin-5-yl)carbamate]", "IC50": 7.4},
      {"smiles": "Cc1cc(-c2nc3cc(F)c(O[C@@H](C)[C@@H](C)OC(=O)Nc4cnc(C)nc4)cc3s2)c2ncc(OCCO)nc2c1", "note": "[Example 493, (2R,3S)-3-((5-fluoro-2-(2-(2-hydroxyethoxy)-7-methylquinoxalin-5-yl)benzo[d]thiazol-6-yl)oxy)butan-2-yl (2-methylpyrimidin-5-yl)carbamate]", "IC50": 21},
      {"smiles": "COc1cnc2c(-c3nc4c(Cl)c(F)c(OC[C@@H](C)OC(=O)Nc5ccnc(CO)c5)cc4s3)cc(C)cc2n1", "note": "[Example 494, (R)-1-((4-chloro-5-fluoro-2-(2-methoxy-7-methylquinoxalin-5-yl)benzo[d]thiazol-6-yl)oxy)propan-2-yl (2-(hydroxymethyl)pyridin-4-yl)carbamate]", "IC50": 1.8},
      {"smiles": "COc1cnc2c(-c3nc4cc(F)c(OC[C@@H](C)OC(=O)Nc5ccnc(CO)c5)cc4s3)cc(C)cc2n1", "note": "[Example 495, (R)-1-((5-fluoro-2-(2-methoxy-7-methylquinoxalin-5-yl)benzo[d]thiazol-6-yl)oxy)propan-2-yl (2-(hydroxymethyl)pyridin-4-yl)carbamate]", "IC50": 15},
      {"smiles": "COc1cnc2c(-c3nc4cc(F)c(OC[C@@H](C)OC(=O)Nc5cnc(CO)nc5)cc4s3)cc(C)cc2n1", "note": "[Example 496, (R)-1-((5-fluoro-2-(2-methoxy-7-methylquinoxalin-5-yl)benzo[d]thiazol-6-yl)oxy)propan-2-yl (2-(hydroxymethyl)pyrimidin-5-yl)carbamate]", "IC50": 1.9},
      {"smiles": "COc1cnc2c(-c3nc4cc(F)c(OC[C@@H](C)OC(=O)Nc5cnc(C(C)(C)O)nc5)cc4s3)cc(C)cc2n1", "note": "[Example 497, (R)-1-((5-fluoro-2-(2-methoxy-7-methylquinoxalin-5-yl)benzo[d]thiazol-6-yl)oxy)propan-2-yl (2-(2-hydroxypropan-2-yl)pyrimidin-5-yl)carbamate]", "IC50": 1.3},
      {"smiles": "COc1cnc2c(-c3nc4cc(F)c(OC[C@@H](C)OC(=O)Nc5ccc(C(C)(C)O)nc5)cc4s3)cc(C)cc2n1", "note": "[Example 498, (R)-1-((5-fluoro-2-(2-methoxy-7-methylquinoxalin-5-yl)benzo[d]thiazol-6-yl)oxy)propan-2-yl (6-(2-hydroxypropan-2-yl)pyridin-3-yl)carbamate]", "IC50": 1.3},
      {"smiles": "COc1cnc2c(-c3nc4cc(F)c(O[C@@H](C)[C@@H](C)OC(=O)Nc5ccc(CO)nc5)cc4s3)cc(C)cc2n1", "note": "[Example 499, (2R,3S)-3-((5-fluoro-2-(2-methoxy-7-methylquinoxalin-5-yl)benzo[d]thiazol-6-yl)oxy)butan-2-yl (6-(hydroxymethyl)pyridin-3-yl)carbamate]", "IC50": 4.4},
      {"smiles": "COc1cnc2c(-c3nc4cc(F)c(O[C@@H](C)[C@@H](C)OC(=O)Nc5ccc(C(C)(C)O)nc5)cc4s3)cc(C)cc2n1", "note": "[Example 500, (2R,3S)-3-((5-fluoro-2-(2-methoxy-7-methylquinoxalin-5-yl)benzo[d]thiazol-6-yl)oxy)butan-2-yl (6-(2-hydroxypropan-2-yl)pyridin-3-yl)carbamate]", "IC50": 3.8}
    ]}
  ]
}
